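Exposure lasted 48 hours, with cells grown in 96-well plates and compounds tested at five concentrations. GI50: concentration for 50% inhibition of growth.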 The source made the active and inactive calls. No stated cut-off is given here; in the data, active = GI50 up to about 1.1 µM and inactive = higher.
How the values were obtained:
Assay in all cases: NCI-60 cell line screen, 48 h
SF-268 = tested on: SF-268
CAKI-1 = tested on: CAKI-1
SN12C = tested on: SN12C
NCI-H226 = tested on: NCI-H226
SK-OV-3 = tested on: SK-OV-3
RXF 631 = tested on: RXF 631
IGROV-1 = tested on: IGROV-1
786-0 = tested on: 786-0
HOP-18 = tested on: HOP-18
OVCAR-3 = tested on: OVCAR-3
XF498 = tested on: XF498
OVCAR-5 = tested on: OVCAR-5
EKVX = tested on: EKVX
DLD-1 = tested on: DLD-1
TK-10 = tested on: TK-10
NCI-H460 = tested on: NCI-H460
RPMI-8226 = tested on: RPMI-8226
HT-29 = tested on: HT-29
NCI-H23 = tested on: NCI-H23
COLO 205 = tested on: COLO 205
SF-539 = tested on: SF-539
DMS-114 = tested on: DMS-114
HCT-116 = tested on: HCT-116
RXF 393 = tested on: RXF 393
HL-60 = tested on: HL-60
A549 = tested on: A549
KM12 = tested on: KM12
M19-MEL = tested on: M19-MEL
NCI-H522 = tested on: NCI-H522
SNB-19 = tested on: SNB-19
LXFL 529 = tested on: LXFL 529
U-251 = tested on: U-251
LOX IMVI = tested on: LOX IMVI
SK-MEL-28 = tested on: SK-MEL-28
OVCAR-4 = tested on: OVCAR-4
CCRF-CEM = tested on: CCRF-CEM
HOP-92 = tested on: HOP-92
K562 = tested on: K562
OVCAR-8 = tested on: OVCAR-8
DMS-273 = tested on: DMS-273
A498 = tested on: A498
SK-MEL-2 = tested on: SK-MEL-2
SF-295 = tested on: SF-295
HCT-15 = tested on: HCT-15
MOLT-4 = tested on: MOLT-4
HOP-62 = tested on: HOP-62
UACC-62 = tested on: UACC-62
ACHN = tested on: ACHN
KM-20L2 = tested on: KM-20L2
SW-620 = tested on: SW-620
M14 = tested on: M14
SK-MEL-5 = tested on: SK-MEL-5
Malme-3M = tested on: Malme-3M
SNB-75 = tested on: SNB-75
HCC 2998 = tested on: HCC 2998

With `O=C1CCC(O)=C1O` the GI50 (SF-268) was > 100 µM (inactive), the GI50 (CAKI-1) was > 100 µM (inactive) and the GI50 (SN12C) was > 100 µM (inactive). The GI50 (NCI-H226) was > 100 µM (inactive), the GI50 (SK-OV-3) was > 100 µM (inactive) and the GI50 (RXF 631) was > 100 µM (inactive). The GI50 (IGROV-1) was > 100 µM (inactive), the GI50 (786-0) was > 100 µM (inactive) and the GI50 (HOP-18) was > 100 µM (inactive). The GI50 (OVCAR-3) was > 100 µM (inactive), the GI50 (XF498) was > 100 µM (inactive) and the GI50 (OVCAR-5) was > 100 µM (inactive). For the same compound, the GI50 (EKVX) was > 100 µM (inactive), the GI50 (DLD-1) was > 100 µM (inactive) and the GI50 (TK-10) was > 100 µM (inactive). For the same compound, the GI50 (NCI-H460) was > 100 µM (inactive), the GI50 (RPMI-8226) was > 100 µM (inactive) and the GI50 (HT-29) was > 100 µM (inactive). For the same compound, the GI50 (NCI-H23) was > 100 µM (inactive), the GI50 (COLO 205) was > 100 µM (inactive) and the GI50 (SF-539) was > 100 µM (inactive). The GI50 (DMS-114) was > 100 µM (inactive), the GI50 (HCT-116) was > 100 µM (inactive) and the GI50 (RXF 393) was > 100 µM (inactive). The GI50 (HL-60) was > 100 µM (inactive), the GI50 (A549) was > 100 µM (inactive) and the GI50 (KM12) was > 100 µM (inactive). For the same compound, the GI50 (M19-MEL) was > 100 µM (inactive), the GI50 (NCI-H522) was > 100 µM (inactive) and the GI50 (SNB-19) was > 100 µM (inactive). For the same compound, the GI50 (LXFL 529) was > 100 µM (inactive), the GI50 (U-251) was > 100 µM (inactive) and the GI50 (LOX IMVI) was > 100 µM (inactive). For the same compound, the GI50 (SK-MEL-28) was > 100 µM (inactive), the GI50 (OVCAR-4) was > 100 µM (inactive) and the GI50 (CCRF-CEM) was > 100 µM (inactive). For the same compound, the GI50 (HOP-92) was > 100 µM (inactive), the GI50 (K562) was > 100 µM (inactive) and the GI50 (OVCAR-8) was > 100 µM (inactive). The GI50 (DMS-273) was > 100 µM (inactive), the GI50 (A498) was > 100 µM (inactive) and the GI50 (SK-MEL-2) was > 100 µM (inactive). For the same compound, the GI50 (SF-295) was > 100 µM (inactive), the GI50 (HCT-15) was greater than 100 µM and the GI50 (MOLT-4) was > 100 µM (inactive). For the same compound, the GI50 (HOP-62) was > 100 µM (inactive), the GI50 (UACC-62) was > 100 µM (inactive) and the GI50 (ACHN) was > 100 µM (inactive). The GI50 (KM-20L2) was > 100 µM (inactive), the GI50 (SW-620) was > 100 µM (inactive) and the GI50 (M14) was > 100 µM (inactive). For the same compound, the GI50 (SK-MEL-5) was > 100 µM (inactive), the GI50 (Malme-3M) was > 100 µM (inactive) and the GI50 (SNB-75) was > 100 µM (inactive). For the same compound, the GI50 (HCC 2998) was > 100 µM (inactive).
